Data taken from patent publication US8642585B2, “Indanyloxydihydrobenzofuranylacetic acids” (Boehringer Ingelheim International GmbH, priority 2012, dated 2014).

Target: human GPR40 receptor (Homo sapiens, UniProt O14842)
Experiment: Assay I: IP1 accumulation (IPOne HTRF) in 1321N1 cells stably expressing human GPR40
Assay type: cell-based
Settings: 1321N1 cells expressing human GPR40, stimulation 1 hour at 37° C., 10% CO2, final LiCl 50 mM
Procedure: IP1 accumulation measurements using the IPOne assay system—1321N1 cells stably expressing human GPR40 receptor (Euroscreen, Belgium) are seeded 24 h before the assay in black clear-bottom collagen-coated 384-well plates in culture medium containing 10% FCS, 1% Na-Pyruvate and 400 μg/mL G418. IP1 is assayed according to the Manufacturers description (Cisbio Bioassays, France). In brief, the assay is started by substitution of the culture medium by stimulation buffer (Hepes 10 mM, CaCl2 1 mM, MgCl2 0.5 mM, KCl 4.2 mM, NaCl 146 mM and glucose 5.5 mM, pH 7.4) without LiCl. Cells are stimulated for 1 hour at 37° C., 10% CO2 by addition of the compounds that are diluted in stimulation buffer containing LiCl yielding a final LiCl concentration of 50 mM. Assays are stopped by adding HTRF-conjugates (IP1-d2 and Anti-IP1 cryptate Tb) and lysis buffer, provided by the manufacturer. After an incubation time of 1 hour at room temperature plates are measured using an EnVision™, Perkin Elmer. The obtained fluorescence ratios at 665/615 nM are then used to calculate the pEC50 values using GraphPad Prism 5 (Graphpad Software Inc, USA) by interpolation using an IP1 reference curve and subsequent sigmoidal curve fitting allowing for a variable hill slope.

Sequence of human GPR40 receptor (O14842 whole entry): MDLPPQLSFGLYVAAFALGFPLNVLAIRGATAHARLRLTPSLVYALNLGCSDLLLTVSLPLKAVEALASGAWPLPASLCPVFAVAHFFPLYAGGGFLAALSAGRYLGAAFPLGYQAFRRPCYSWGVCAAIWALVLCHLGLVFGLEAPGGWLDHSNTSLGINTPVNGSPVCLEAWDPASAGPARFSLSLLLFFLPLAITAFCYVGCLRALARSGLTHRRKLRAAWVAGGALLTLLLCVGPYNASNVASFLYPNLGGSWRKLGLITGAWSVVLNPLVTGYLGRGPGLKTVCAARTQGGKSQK

Row | Compound | EC50
1 | CNC(=O)COc1cc(C)c(-c2ccc(F)c3c2CC[C@H]3Oc2ccc3c(c2)OC[C@H]3CC(=O)O)c(C)c1 [Example 12, 2-((S)-6-((R)-4-(2,6-Dimethyl-4-(2-(methylamino)-2-oxoethoxy)phenyl)-7-fluoro-2,3-dihydro-1H-inden-1-yloxy)-2,3-dihydrobenzofuran-3-yl)acetic acid] | 0.012 µM
2 | Cc1cc(OCC(=O)N(C)C)cc(C)c1-c1ccc(F)c2c1CC[C@H]2Oc1ccc2c(c1)OC[C@H]2CC(=O)O [Example 13, 2-((S)-6-((R)-4-(4-(2-(Dimethylamino)-2-oxoethoxy)-2,6-dimethylphenyl)-7-fluoro-2,3-dihydro-1H-inden-1-yloxy)-2,3-dihydrobenzofuran-3-yl)acetic acid] | 0.063 µM
3 | Cc1cc(OCC(N)=O)cc(C)c1-c1ccc(F)c2c1CC[C@H]2Oc1ccc2c(c1)OC[C@H]2CC(=O)O [Example 14, 2-((S)-6-((R)-4-(4-(2-Amino-2-oxoethoxy)-2,6-dimethylphenyl)-7-fluoro-2,3-dihydro-1H-inden-1-yloxy)-2,3-dihydrobenzofuran-3-yl)acetic acid] | 0.014 µM
4 | Cc1cc(OCC(C)(C)CO)cc(C)c1-c1ccc(F)c2c1CC[C@H]2Oc1ccc2c(c1)OC[C@H]2CC(=O)O [Example 15, 2-((S)-6-((R)-7-Fluoro-4-(4-(3-hydroxy-2,2-dimethylpropoxy)-2,6-dimethylphenyl)-2,3-dihydro-1H-inden-1-yloxy)-2,3-dihydrobenzofuran-3-yl)acetic acid] | 0.005 µM
5 | COCC(C)(C)COc1cc(C)c(-c2ccc(F)c3c2CC[C@H]3Oc2ccc3c(c2)OC[C@H]3CC(=O)O)c(C)c1 [Example 16, 2-((S)-6-((R)-7-Fluoro-4-(4-(3-methoxy-2,2-dimethylpropoxy)-2,6-dimethylphenyl)-2,3-dihydro-1H-inden-1-yloxy)-2,3-dihydrobenzofuran-3-yl)acetic acid] | 0.005 µM
6 | Cc1cc(-c2cncnc2)cc(C)c1-c1ccc(F)c2c1CC[C@H]2Oc1ccc2c(c1)OC[C@H]2CC(=O)O [Example 17, 2-((S)-6-((R)-4-(2,6-Dimethyl-4-(pyrimidin-5-yl)phenyl)-7-fluoro-2,3-dihydro-1H-inden-1-yloxy)-2,3-dihydrobenzofuran-3-yl)acetic acid] | 0.004 µM
7 | Cc1cc(-c2ncco2)cc(C)c1-c1ccc(F)c2c1CC[C@H]2Oc1ccc2c(c1)OC[C@H]2CC(=O)O [Example 18, 2-((S)-6-((R)-4-(2,6-Dimethyl-4-(oxazol-2-yl)phenyl)-7-fluoro-2,3-dihydro-1H-inden-1-yloxy)-2,3-dihydrobenzofuran-3-yl)acetic acid] | 0.004 µM
8 | Cc1cc(-c2cnn(C)c2)cc(C)c1-c1ccc(F)c2c1CC[C@H]2Oc1ccc2c(c1)OC[C@H]2CC(=O)O [Example 19, 2-((S)-6-((R)-4-(2,6-Dimethyl-4-(1-methyl-1H-pyrazol-4-yl)phenyl)-7-fluoro-2,3-dihydro-1H-inden-1-yloxy)-2,3-dihydrobenzofuran-3-yl)acetic acid] | 0.003 µM
9 | Cc1cc(-c2ccnn2C)cc(C)c1-c1ccc(F)c2c1CC[C@H]2Oc1ccc2c(c1)OC[C@H]2CC(=O)O [Example 20, 2-((S)-6-((R)-4-(2,6-Dimethyl-4-(1-methyl-1H-pyrazol-5-yl)phenyl)-7-fluoro-2,3-dihydro-1H-inden-1-yloxy)-2,3-dihydrobenzofuran-3-yl)acetic acid] | 0.009 µM
10 | Cc1cc(OC(C)(C)C#N)cc(C)c1-c1ccc(F)c2c1CC[C@H]2Oc1ccc2c(c1)OC[C@H]2CC(=O)O [Example 21, 2-((S)-6-((R)-4-(4-(2-Cyanopropan-2-yloxy)-2,6-dimethylphenyl)-7-fluoro-2,3-dihydro-1H-inden-1-yloxy)-2,3-dihydrobenzofuran-3-yl)acetic acid] | 0.009 µM
11 | Cc1cc(OCC(C)(C)CN(C)C)cc(C)c1-c1ccc(F)c2c1CC[C@H]2Oc1ccc2c(c1)OC[C@H]2CC(=O)O [Example 22, 2-((S)-6-((R)-4-(4-(3-(Dimethylamino)-2,2-dimethylpropoxy)-2,6-dimethylphenyl)-7-fluoro-2,3-dihydro-1H-inden-1-yloxy)-2,3-dihydrobenzofuran-3-yl)acetic acid] | 0.017 µM
12 | Cc1cc(OCCN2CCCC2=O)cc(C)c1-c1ccc(F)c2c1CC[C@H]2Oc1ccc2c(c1)OC[C@H]2CC(=O)O [Example 23, 2-((S)-6-((R)-4-(2,6-Dimethyl-4-(2-(2-oxopyrrolidin-1-yl)ethoxy)phenyl)-7-fluoro-2,3-dihydro-1H-inden-1-yloxy)-2,3-dihydrobenzofuran-3-yl)acetic acid] | 0.01 µM
13 | Cc1cc(C2=CCOCC2)cc(C)c1-c1ccc(F)c2c1CC[C@H]2Oc1ccc2c(c1)OC[C@H]2CC(=O)O [Example 24, 2-((S)-6-((R)-4-(4-(3,6-dihydro-2H-pyran-4-yl)-2,6-dimethylphenyl)-7-fluoro-2,3-dihydro-1H-inden-1-yloxy)-2,3-dihydrobenzofuran-3-yl)acetic acid] | 0.003 µM
14 | Cc1cc(C2=CCN(S(C)(=O)=O)CC2)cc(C)c1-c1ccc(F)c2c1CC[C@H]2Oc1ccc2c(c1)OC[C@H]2CC(=O)O [Example 25, 2-((S)-6-((R)-4-(2,6-dimethyl-4-(1-(methylsulfonyl)-1,2,3,6-tetrahydropyridin-4-yl)phenyl)-7-fluoro-2,3-dihydro-1H-inden-1-yloxy)-2,3-dihydrobenzofuran-3-yl)acetic acid] | 0.035 µM
15 | Cc1cc(OC2CN(S(C)(=O)=O)C2)cc(C)c1-c1ccc(F)c2c1CC[C@H]2Oc1ccc2c(c1)OC[C@H]2CC(=O)O [Example 26, 2-((S)-6-((R)-4-(2,6-Dimethyl-4-(1-(methylsulfonyl)azetidin-3-yloxy)phenyl)-7-fluoro-2,3-dihydro-1H-inden-1-yloxy)-2,3-dihydrobenzofuran-3-yl)acetic acid] | 0.017 µM
16 | Cc1cc(OCC2CCS(=O)(=O)C2)cc(C)c1-c1ccc(F)c2c1CC[C@H]2Oc1ccc2c(c1)OC[C@H]2CC(=O)O (stereo partly drawn) [Example 27, 2-((3S)-6-((1R)-4-(2,6-Dimethyl-4-((1,1-dioxo-tetrahydrothiophen-3-yl)methoxy)phenyl)-7-fluoro-2,3-dihydro-1H-inden-1-yloxy)-2,3-dihydrobenzofuran-3-yl)acetic acid] | 0.009 µM
17 | Cc1cc(OCC2CCS(=O)(=O)CC2)cc(C)c1-c1ccc(F)c2c1CC[C@H]2Oc1ccc2c(c1)OC[C@H]2CC(=O)O [Example 28, 2-((S)-6-((R)-4-(2,6-Dimethyl-4-((1,1-dioxo-tetrahydro-2H-thiopyran-4-yl)methoxy)phenyl)-7-fluoro-2,3-dihydro-1H-inden-1-yloxy)-2,3-dihydrobenzofuran-3-yl)acetic acid] | 0.006 µM
18 | Cc1cc(OCC2CN(S(C)(=O)=O)C2)cc(C)c1-c1ccc(F)c2c1CC[C@H]2Oc1ccc2c(c1)OC[C@H]2CC(=O)O [Example 29, 2-((S)-6-((R)-4-(2,6-Dimethyl-4-((1-(methylsulfonyl)azetidin-3-yl)methoxy)phenyl)-7-fluoro-2,3-dihydro-1H-inden-1-yloxy)-2,3-dihydrobenzofuran-3-yl)acetic acid] | 0.011 µM
19 | CCS(=O)(=O)N1CC(COc2cc(C)c(-c3ccc(F)c4c3CC[C@H]4Oc3ccc4c(c3)OC[C@H]4CC(=O)O)c(C)c2)C1 [Example 30, 2-((S)-6-((R)-4-(4-((1-(Ethylsulfonyl)azetidin-3-yl)methoxy)-2,6-dimethylphenyl)-7-fluoro-2,3-dihydro-1H-inden-1-yloxy)-2,3-dihydrobenzofuran-3-yl)acetic acid] | 0.007 µM
20 | Cc1cc(OCC2CN(S(=O)(=O)C(C)C)C2)cc(C)c1-c1ccc(F)c2c1CC[C@H]2Oc1ccc2c(c1)OC[C@H]2CC(=O)O [Example 31, 2-((S)-6-((R)-7-Fluoro-4-(4-((1-(isopropylsulfonyl)azetidin-3-yl)methoxy)-2,6-dimethylphenyl)-2,3-dihydro-1H-inden-1-yloxy)-2,3-dihydrobenzofuran-3-yl)acetic acid] | 0.017 µM
21 | Cc1cc(OC2CCS(=O)(=O)CC2)cc(C)c1-c1ccc(F)c2c1CC[C@H]2Oc1ccc2c(c1)OC[C@H]2CC(=O)O [Example 32, 2-((S)-6-((R)-4-(2,6-Dimethyl-4-(1,1-dioxo-tetrahydro-2H-thiopyran-4-yloxy)phenyl)-7-fluoro-2,3-dihydro-1H-inden-1-yloxy)-2,3-dihydrobenzofuran-3-yl)acetic acid] | 0.026 µM
22 | Cc1cc(O[C@H]2C[C@@H](N(C)S(C)(=O)=O)C2)cc(C)c1-c1ccc(F)c2c1CC[C@H]2Oc1ccc2c(c1)OC[C@H]2CC(=O)O [Example 33, 2-((S)-6-((R)-4-(2,6-Dimethyl-4-((1s,3S)-3-(N-methylmethylsulfonamido)cyclobutoxy)phenyl)-7-fluoro-2,3-dihydro-1H-inden-1-yloxy)-2,3-dihydrobenzofuran-3-yl)acetic acid] | 0.012 µM
23 | Cc1cc(O[C@H]2CCN(S(C)(=O)=O)C2)cc(C)c1-c1ccc(F)c2c1CC[C@H]2Oc1ccc2c(c1)OC[C@H]2CC(=O)O [Example 34, 2-((S)-6-((R)-4-(2,6-Dimethyl-4-((S)-1-(methylsulfonyl)pyrrolidin-3-yloxy)phenyl)-7-fluoro-2,3-dihydro-1H-inden-1-yloxy)-2,3-dihydrobenzofuran-3-yl)acetic acid] | 0.011 µM
